Ki data for 28 compounds are collected here from US20100056565A1, “Heterocyclic Derivatives as M3 Muscarinic Receptors” (priority 2007, published 2010).

Counter-ions that a name gives are not always drawn.

The target in the first experiment is T1, Recombinant human M3 receptor (Homo sapiens, UniProt P20309).
T1 construct: expressed in transfected cells; host or cells: CHO-K1 cells (membranes)
T1 sequence (P20309 whole entry): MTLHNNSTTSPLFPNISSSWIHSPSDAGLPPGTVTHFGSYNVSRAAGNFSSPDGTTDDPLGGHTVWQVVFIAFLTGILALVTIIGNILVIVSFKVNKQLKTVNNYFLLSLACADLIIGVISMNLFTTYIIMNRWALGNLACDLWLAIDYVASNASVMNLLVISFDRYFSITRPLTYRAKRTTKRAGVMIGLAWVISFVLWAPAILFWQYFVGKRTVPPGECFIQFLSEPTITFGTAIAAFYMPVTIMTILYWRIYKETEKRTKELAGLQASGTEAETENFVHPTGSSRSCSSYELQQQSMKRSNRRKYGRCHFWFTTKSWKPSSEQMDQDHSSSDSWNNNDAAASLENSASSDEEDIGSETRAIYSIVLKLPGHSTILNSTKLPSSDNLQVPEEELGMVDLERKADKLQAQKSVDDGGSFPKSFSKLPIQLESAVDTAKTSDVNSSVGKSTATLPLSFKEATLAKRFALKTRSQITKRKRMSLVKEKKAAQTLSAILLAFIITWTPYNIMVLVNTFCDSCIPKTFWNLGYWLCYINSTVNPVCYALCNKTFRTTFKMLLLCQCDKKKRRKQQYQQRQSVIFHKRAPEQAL
Description: biochemical. Format: binding. The conditions noted are these: M3, SPA format assay; read-out: Ki in the SPA format assay. As for the experimental part:
Recombinant human M3 receptor was expressed in CHO-K1 cells. Cell membranes were prepared and binding of [3H]-N-methyl scopolamine ([3H]-NMS) and compounds was assessed by a scintillation proximity assay (SPA). The incubation time was 16 hours at room temperature in the presence of 1% (v/v) DMSO. The assay was performed in white 96 well clear-bottomed NBS plates (Corning). Prior to the assay, the CHO cell membranes containing M3 receptor were coated onto SPA WGA (Wheat germ agglutinin) beads (GE Healthcare). Non specific binding was determined in the presence of 1 μM Atropine.
Radioactivity was measured on a Microbeta scintillation counter (PerkinElmer) using a 3H protocol with a 2 minutes per well read time. […] Concentration dependent inhibition of [3H]-NMS binding by compounds was expressed as pIC50.
`O[C@](c1ccccc1)(c1ncc(C[N+]23CCC(CC2)[C@@H](Oc2ccc(F)cc2)C3)o1)C1CCCCC1` [Example 66, (R)-1-[2-((R)—Cyclohexyl-hydroxy-phenyl-methyl)-oxazol-5-ylmethyl]-3-(4-fluoro-phenoxy)-1-azonia-bicyclo[2.2.2]octane; bromide]: the Ki – broadly, the equilibrium dissociation constant of an inhibitor or competing ligand from its target – was found to be 0.09 nM.

The same experiment, now with this note: SPA format; read-out: M3 Ki (SPA format).
For the compound `O[C@](c1ccccc1)(c1ncc(C[N+]23CCC(CC2)[C@@H](OCCC2CCCCC2)C3)o1)C1CCCCC1` [Example 53, (R)-3-(2-cyclohexyl-ethoxy)-1-[2-((R)-cyclohexyl-hydroxy-phenyl-methyl)-oxazol-5-ylmethyl]-1-azonia-bicyclo[2.2.2]octane; formate], the Ki was under 5 nM.

In the case of `O[C@](c1ccccc1)(c1ncc(C[N+]23CCC(COc4ccccc4)(CC2)CC3)o1)C1CCCCC1` [Example 55, 1-[2 ((R)—Cyclohexyl-hydroxy-phenyl-methyl)-oxazol-5-ylmethyl]-4-phenoxymethyl-1-azonia-bicyclo[2.2.2]octane; bromide], the Ki is under 5 nM.

Regarding `O[C@](c1ccccc1)(c1nnc(C[N+]23CCC(CC2)[C@@H](OCc2ccccc2)C3)o1)C1CCCCC1` [Example 56, (R)-3-benzyloxy-1-[5-((R)-cyclohexyl-hydroxy-phenyl-methyl)-[1,3,4]oxadiazol-2-ylmethyl]-1-azonia-bicyclo[2.2.2]octane; formate], the Ki was under 5 nM.

As for `OC(c1ccccc1)(c1ccccc1)c1ncc(C[N+]23CCC(CC2)[C@@H](Oc2ccc(C(F)(F)F)cc2)C3)o1` [Example 57, (R)-1-[2-(Hydroxy-diphenyl-methyl)-oxazol-5-ylmethyl]-3-(4-trifluoromethyl-phenoxy)-1-azonia-bicyclo[2.2.2]octane; bromide], the Ki is 5 to 20 nM.

Consider `Cc1ccc(O[C@H]2C[N+]3(Cc4cnc(C(O)(c5ccccc5)c5ccccc5)o4)CCC2CC3)cc1` [Example 58, (R)-1-[2-(Hydroxy-diphenyl-methyl)-oxazol-5-ylmethyl]-3-p-tolyloxy-1-azonia-bicyclo[2.2.2]octane; bromide], for which the Ki was under 5 nM.

For the compound `Cc1ccc(O[C@H]2C[N+]3(Cc4cnc(C(O)(c5ccccc5)c5ccccc5)o4)CCC2CC3)cc1Cl` [Example 59, (R)-3-(3-Chloro-4-methyl-phenoxy)-1-[2-(hydroxy-diphenyl-methyl)-oxazol-5-ylmethyl]-1-azonia-bicyclo[2.2.2]octane; bromide], the Ki was under 5 nM.

On to `Cc1ccc(O[C@H]2C[N+]3(Cc4cnc([C@](O)(c5ccccc5)C5CCCCC5)o4)CCC2CC3)cc1Cl` [Example 60, (R)-3-(3-Chloro-4-methyl-phenoxy)-1-[2-((R)-cyclohexyl-hydroxy-phenyl-methyl)-oxazol-5-ylmethyl]-1-azonia-bicyclo[2.2.2]octane; bromide], for which the Ki was under 5 nM.

Turning to `O[C@](c1ccccc1)(c1ncc(C[N+]23CCC(CC2)C(Cc2ccccc2)C3)o1)C1CCCCC1` (stereo partly drawn) [Example 61, 3-benzyl-1-[2-((R)-cyclohexyl-hydroxy-phenyl-methyl)-oxazol-5-ylmethyl]-1-azonia-bicyclo[2.2.2]octane; formate], the Ki is under 5 nM.

For `OC(c1ccccc1)(c1ccccc1)c1ncc(C[N+]23CCC(CC2)[C@@H](Oc2cccc(Cl)c2)C3)o1` [Example 62, (R)-3-(3-Chloro-phenoxy)-1-[2-(hydroxy-diphenyl-methyl)-oxazol-5-ylmethyl]-1-azonia-bicyclo[2.2.2]octane; bromide], the Ki was under 5 nM.

On to `OC(c1ccccc1)(c1ccccc1)c1ncc(C[N+]23CCC(CC2)[C@@H](Oc2ccc(Cl)cc2)C3)o1` [Example 63, (R)-3-(4-Chloro-phenoxy)-1-[2-(hydroxy-diphenyl-methyl)-oxazol-5-ylmethyl]-1-azonia-bicyclo[2.2.2]octane; bromide], for which the Ki was under 5 nM.

In the case of `O[C@](c1ccccc1)(c1ncc(C[N+]23CCC(CC2)[C@@H](Oc2ccc(Cl)cc2)C3)o1)C1CCCCC1` [Example 64, (R)-3-(4-Chloro-phenoxy)-1-[2-((R)-cyclohexyl-hydroxy-phenyl-methyl)-oxazol-5-ylmethyl]-1-azonia-bicyclo[2.2.2]octane; bromide], the Ki was under 5 nM.

Turning to `O[C@](c1ccccc1)(c1ncc(C[N+]23CCC(CC2)[C@@H](Oc2cccc(Cl)c2)C3)o1)C1CCCCC1` [Example 65, (R)-3-(3-Chloro-phenoxy)-1-[2-((R)-cyclohexyl-hydroxy-phenyl-methyl)-oxazol-5-ylmethyl]-1-azonia-bicyclo[2.2.2]octane; bromide], the Ki is under 5 nM.

Regarding `O[C@](c1ccccc1)(c1ncc(C[N+]23CCC(CC2)[C@@H](Oc2ccc(F)cc2)C3)o1)C1CCCCC1` [Example 66, (R)-1-[2-((R)—Cyclohexyl-hydroxy-phenyl-methyl)-oxazol-5-ylmethyl]-3-(4-fluoro-phenoxy)-1-azonia-bicyclo[2.2.2]octane; bromide], the Ki is under 5 nM.

Consider `O[C@](c1ccccc1)(c1ncc(C[N+]23CCC(CC2)[C@@H](Oc2cccc(F)c2)C3)o1)C1CCCCC1` [Example 67, (R)-1-[2-((R)—Cyclohexyl-hydroxy-phenyl-methyl)-oxazol-5-ylmethyl]-3-(3-fluoro-phenoxy)-1-azonia-bicyclo[2.2.2]octane; bromide], for which the Ki is under 5 nM.

Turning to `OC(c1ccccc1)(c1ccccc1)c1ncc(C[N+]23CCC(CC2)[C@@H](Sc2ccccc2)C3)o1` [Example 68, 1-[2-(Hydroxy-diphenyl-methyl)-oxazol-5-ylmethyl]-3-phenylsulfanyl-1-azonia-bicyclo[2.2.2]octane; bromide], the inhibitory constant (Ki) is under 5 nM.

Turning to `O[C@](c1ccccc1)(c1ncc(C[N+]23CCC(CC2)C(Sc2ccccc2)C3)o1)C1CCCCC1` (stereo partly drawn) [Example 69, 1-[2-(R)-cyclohexyl-hydroxy-phenyl-methyl)-oxazol-5-ylmethyl]-3-phenylsulfanyl-1-azonia-bicyclo[2.2.2]octane; formate], the Ki is under 5 nM.

In the case of `O[C@](c1ccccc1)(c1nnc(C[N+]23CCC(CC2)[C@@H](Sc2ccccc2)C3)o1)C1CCCCC1` [Example 71, 1-[5-((R)—Cyclohexyl-hydroxy-phenyl-methyl)-[1,3,4]oxadiazol-2-ylmethyl]-3-phenylsulfanyl-1-azonia-bicyclo[2.2.2]octane; bromide], the Ki is under 5 nM.

Regarding `OC(c1ccccc1)(c1ccccc1)c1ncc(C[N+]23CCC(CC2)[C@@H](Oc2ccc(F)cc2)C3)o1` [Example 72, (R)-3-(4-Fluoro-phenoxy)-1-[2-(hydroxy-diphenyl-methyl)-oxazol-5-ylmethyl]-1-azonia-bicyclo[2.2.2]octane; bromide], the Ki was under 5 nM.

Consider `OC(c1ccccc1)(c1ccccc1)c1ncc(C[N+]23CCC(CC2)[C@@H](Oc2cccc(F)c2)C3)o1` [Example 73, (R)-3-(3-Fluoro-phenoxy)-1-[2-(hydroxy-diphenyl-methyl)-oxazol-5-ylmethyl]-1-azonia-bicyclo[2.2.2]octane; bromide], for which the Ki was under 5 nM.

With `OC(c1ccccc1)(c1ccccc1)c1ncc(C[N+]23CCC(CC2)[C@@H](Oc2cc(Cl)cc(Cl)c2)C3)o1` [Example 74, (R)-3-(3,5-dichloro-phenoxy)-1-[2-(hydroxy-diphenyl-methyl)-oxazol-5-ylmethyl]-1-azonia-bicyclo[2.2.2]octane; bromide], the inhibition constant Ki is over 20 nM.

On to `OC(c1ccccc1)(c1ccccc1)c1ncc(C[N+]23CCC(CC2)[C@@H](Oc2cccc(C(F)(F)F)c2)C3)o1` [Example 75, (R)-1-[2-[Hydroxy-diphenyl-methyl)-oxazol-5-ylmethyl]-3-(3-trifluoromethyl-phenoxy)-1-azonia-bicyclo[2.2.2]octane; bromide], for which the Ki was under 5 nM.

Regarding `OC(c1ccccc1)(c1ccccc1)c1ncc(C[N+]23CCC(CC2)[C@@H](Oc2ccc(F)c(Cl)c2)C3)o1` [Example 76, (R)-3-(3-chloro-4-fluoro-phenoxy)-1-[2-(hydroxy-diphenyl-methyl)-oxazol-5-ylmethyl]-1-azonia-bicyclo[2.2.2]octane; bromide], the Ki was under 5 nM.

For `OC(c1ccccc1)(c1ccccc1)c1ncc(C[N+]23CCC(CC2)[C@@H](Oc2cccc(Cl)c2Cl)C3)o1` [Example 77, (R)-3-(2,3-dichloro-phenoxy)-1-[2-(hydroxy-diphenyl-methyl)-oxazol-5-ylmethyl]-1-azonia-bicyclo[2.2.2]octane; bromide], the Ki is over 20 nM.

Take `OC(c1ccccc1)(c1ccccc1)c1ncc(C[N+]23CCC(CC2)[C@@H](Oc2ccc(Cl)c(Cl)c2)C3)o1` [Example 78, (R)-3-(3,4-dichloro-phenoxy)-1-[2-(hydroxy-diphenyl-methyl)-oxazol-5-ylmethyl]-1-azonia-bicyclo[2.2.2]octane; bromide]: the Ki is under 5 nM.

`OC(c1ccccc1)(c1ccccc1)c1ncc(C[N+]23CCC(CC2)[C@@H](Oc2ccc4c(c2)OCO4)C3)o1` [Example 79, (R)-3-(Benzo[1,3]dioxal-5-yloxy)-1-[2-(hydroxy-diphenyl-methyl)-oxazol-5-ylmethyl]-1-azonia-bicyclo[2.2.2]octane; bromide]: the Ki is under 5 nM.

For `N#Cc1cccc(O[C@H]2C[N+]3(Cc4cnc(C(O)(c5ccccc5)c5ccccc5)o4)CCC2CC3)c1` [Example 80, (R)-3-(3-cyano-phenoxy)-1-[2-(hydroxy-diphenyl-methyl)-oxazol-5-ylmethyl]-1-azonia-bicyclo[2.2.2]octane; bromide], the Ki is under 5 nM.

As to `O[C@](c1ccccc1)(c1ncc(C[N+]23CCC(CC2)C(c2ccccc2)C3)o1)C1CCCCC1` (stereo partly drawn) [Example 88, 1-[2-((R)—Cyclohexyl-hydroxy-phenyl-methyl)-oxazol-5-ylmethyl]-3-phenyl-1-azonia-bicyclo[2.2.2]octane; bromide], the Ki lay within 5 to 20 nM.

For `OC(c1ccccc1)(c1ccccc1)c1ncc(C[N+]23CCC(CC2)[C@H](COc2ccccc2)C3)o1` [Example 92, (S)-1-[2-(Hydroxy-diphenyl-methyl)-oxazol-5-ylmethyl]-3-phenoxymethyl-1-azonia-bicyclo[2.2.2]octane; bromide], the Ki lay in the range of 5 to 20 nM.
